Measured values taken from patent publication US20150025012A1, “METHODS AND COMPOSITIONS FOR IDENTIFICATION, ASSESSMENT AND TREATMENT OF CANCERS ASSOCIATED WITH HEDGEHOG SIGNALING” (Infinity Pharmaceuticals, Inc., priority 2010, published 2015).

System: hGli-1 mRNA expression
Assay: Gli-1 mRNA expression after SHh stimulation in tumor cell lines (qRT-PCR)
Format: cell-based, human
Conditions: SW872 liposarcoma cell lines; 500 nM IPI-926
Experimental: Several tumor cell lines were tested for Hh pathway responsiveness and for the presence or absence of cilia or vimentin immunofluorescence (IF). Hh pathway responsiveness was evaluated by detecting increases in hGli-1 mRNA expression in response to Sonic Hedgehog stimulation) in a control sample (C), sample treated with Sonic Hedgehog (SHh), and sample treated with SHh and 500 nM of the hedgehog inhibitor IPI-926 (926). Procedures for RNA extraction and RT-PCR detection were performed by standard methods. Briefly, total RNA was extracted from all tumors using a standard RNEASY® Mini Kit (Qiagen). Next, the RNA was converted to cDNA and 50 ng cDNA was used in each reaction/sample for qRT-PCR analysis of the expression of human Gli1. Samples were tested in duplicate. Cilia and Vimentin IF was performed using standard immunofluorescent methods. Cilia were detected on cells using immunofluorescence (IF) with antibodies specific for acetylated-tubulin obtained from Sigma Aldrich. Cells were co-stained with antibodies to the centriole-specific protein pericentrin.
Hh pathway modulation measured after growing cells in low serum and treating with SHh ligand in the presence or absence of IPI-926. Cell lines were cultured under the following conditions. […]

CC1=C2C[C@H]3[C@@H](CC[C@@H]4C[C@H](NS(C)(=O)=O)CC[C@@]43C)[C@@H]2CC[C@@]2(C1)O[C@@H]1C[C@H](C)CN[C@H]1[C@H]2C [IPI-926]
SHh-upregulated Gli-1 mRNA expression: blocked
